Test results as given in US11161819B2, “Substituted tetrahydroisoquinoline compounds useful as GPR120 agonists” (Merck Sharp & Dohme Corp., priority 2016, dated 2021).
pEC50: −log10 of the molar value.

Biological target: T1, human GPR120 (Homo sapiens, UniProt Q5NUL3)
T1 construct: expressed in transfected cells
T1 sequence (Q5NUL3 1-361): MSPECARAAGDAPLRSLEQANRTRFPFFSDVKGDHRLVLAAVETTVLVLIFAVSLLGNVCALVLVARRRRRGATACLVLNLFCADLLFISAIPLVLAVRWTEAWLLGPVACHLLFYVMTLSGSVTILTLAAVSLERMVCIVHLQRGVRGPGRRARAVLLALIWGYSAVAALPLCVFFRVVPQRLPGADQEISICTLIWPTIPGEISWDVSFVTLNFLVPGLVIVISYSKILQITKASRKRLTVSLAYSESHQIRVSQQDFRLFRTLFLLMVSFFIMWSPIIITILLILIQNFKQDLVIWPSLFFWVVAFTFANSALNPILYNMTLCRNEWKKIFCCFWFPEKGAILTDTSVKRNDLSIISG
Test: Human GPR120 IP1 Assay (inositol phosphate turnover, CisBio IP-One kit)
Format: cell-based
Details: IP1 accumulation in CHO-K1 cells stably expressing the short form of human GPR120; 60 min compound incubation; 4-parameter fit; read-out: hGPR120 EC50
In short: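 CHO-K1 cells stably expressing short-form human GPR120 were stimulated with compounds for 60 minutes at 37 degrees in stimulation buffer. IP1 accumulation measured by HTRF competitive immunoassay (665/620 nm ratio) against an IP1 standard curve, normalized to a reference compound; EC50 from 4-parameter fit.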

Compound | pEC50
O=C(O)CCc1ccc2c(c1F)CCN(c1cc(OC3CCC3)ccc1F)C2 [Example 61, 3-(2-(5-cyclobutoxy-2-fluorophenyl)-5-fluoro-1,2,3,4-tetrahydro-isoquinolin-6-yl)-propanoic acid] | 7.55
Cc1cnc(Oc2cc(Cl)c(F)c(N3CCc4c(ccc(CCC(=O)O)c4F)C3)c2)s1 [Example 62, 3-(2-{3-chloro-2-fluoro-5-[(5-methyl-1,3-thiazol-2-yl)oxy]phenyl}-5-fluoro-1,2,3,4-tetrahydroisoquinolin-6-yl)propanoic acid] | 8.52
O=C(O)CCc1ccc2c(c1F)CCN(c1nc(OC3CCC3)ccc1F)C2 [Example 63, 3-{2-[6-(cyclobutyloxy)-3-fluoro-pyridin-2-yl]-5-fluoro-1,2,3,4-tetra-hydro-isoquinolin-6-yl} propanoic acid] | 7.85
O=C(O)CCc1ccc2c(c1F)CCN(c1cc(OC3CCC3)cc(F)c1F)C2 [Example 64, 3-{2-[5-(cyclobutyloxy)-2,3-difluorophenyl]-5-fluoro-1,2,3,4-tetra-hydroisoquinolin-6-yl}propanoic acid] | 7.82
O=C(O)CCc1ccc2c(c1F)CCN(c1cc(OC(F)(F)F)cc(Cl)c1F)C2 [Example 65, 3-{2-[3-chloro-2-fluoro-5-(trifluoromethoxy)phenyl]-5-fluoro-1,2,3,4-tetra-hydroisoquinolin-6-yl} propanoic acid] | 7.43
CO[C@H]1C[C@H](Oc2cc(F)c(F)c(N3CCc4c(ccc(CCC(=O)O)c4F)C3)c2)C1 [Example 66, 3-(2-{2,3-difluoro-5-[(trans-3-methoxycyclobutyl)oxy]phenyl}-5-fluoro-1,2,3,4-tetrahydroisoquino-lin-6-yl)-propanoic acid] | 7.39
O=C(O)CCc1ccc2c(c1Cl)CCN(c1cc(OC(F)(F)F)ccc1F)C2 [Example 72, 3-{5-chloro-2-[2-fluoro-5-(trifluoromethoxy)phenyl]-1,2,3,4-tetrahydroiso-quinolin-6-yl}propanoic acid] | 5.93
N#Cc1ccc(OC2CCC2)cc1N1CCc2c(ccc(CCC(=O)O)c2F)C1 [Example 76, 3-{2-[2-cyano-5-(cyclobutyloxy)-phenyl]-5-fluoro-1,2,3,4-tetrahydro-isoquinolin-6-yl}propanoic acid] | 6.07
CC(Cc1ccc2c(c1F)CCN(c1cc(OC(F)(F)F)ccc1F)C2)C(=O)O (stereo not drawn) [Example 77, 3-{5-fluoro-2-[2-fluoro-5-(trifluoromethoxy)phenyl]-1,2,3,4-tetrahydro-isoquinolin-6-yl}-2-methyl-propanoic acid] | 5.23
N#Cc1ccc(OC(F)(F)F)cc1N1CCc2c(ccc(CCC(=O)O)c2F)C1 [Example 78, 3-{2-[2-cyano-5-(trifluoromethoxy)phenyl]-5-fluoro-1,2,3,4-tetrahydro-isoquinolin-6-yl}propanoic acid] | 7.72
CC(Cc1ccc2c(c1F)CCN(c1cc(OC3CCC3)cc(F)c1C#N)C2)C(=O)O (stereo not drawn) [Example 79, 3-(2-(2-cyano-5-cyclobutyloxy-3-fluorophenyl)-5-fluoro-1,2,3,4-tetra hydroisoquinolin-6-yl)-2-methyl-propanoic acid] | 6.33
O=C(O)CCc1ccc2c(c1F)CCN(c1cc(OC(F)(F)F)ccc1F)C2 [Example 80, 3-{5-fluoro-2-[2-fluoro-5-(trifluoromethoxy)phenyl]-1,2,3,4-tetrahydro-isoquinolin-6-yl}propanoic acid] | 5.51
O=C(O)CCc1ccc2c(c1F)CCN(c1cc(OC3CCC3)ccc1F)C2 [Example 81, 3-{2-[5-(cyclobutyloxy)-2-fluoro-phenyl]-5-fluoro-1,2,3,4-tetrahydro-isoquinolin-6-yl}propanoic acid] | 7.32
O=C(O)[C@@H]1C[C@H]1c1ccc2c(c1)CCN(c1cc(OC3CCC3)cc(F)c1F)C2 [Example 85, (1R,2R)-2-{2-[5-(cyclobutyloxy)-2,3-difluorophenyl]-1,2,3,4-tetra-hydroisoquinolin-6-yl}cyclo-propane-carboxylic acid] | 7.40
O=C(O)[C@@H]1C[C@H]1c1ccc2c(c1)CCN(c1cc(OC(F)(F)F)ccc1F)C2 [Example 87, (1R,2R)-2-{2-[2-fluoro-5-(trifluoro-methoxy)phenyl]-1,2,3,4-tetra hydroisoquinolin-6-yl}cyclo-propane carboxylic acid] | 7.13
O=C(O)[C@H]1C[C@@H]1c1ccc2c(c1)CCN(c1cc(OC(F)(F)F)ccc1F)C2 [Example 88, (1S,2S)-2-{2-[2-fluoro-5-(trifluoro-methoxy)phenyl]-1,2,3,4-tetra hydroisoquinolin-6-yl}cyclo-propane carboxylic acid] | 6.96
CO[C@H]1C[C@H](Oc2cc(C#N)c(F)c(N3CCc4cc([C@@H]5C[C@H]5C(=O)O)ccc4C3)c2)C1 [Example 89, (1R,2R)-2-(2-{3-cyano-2-fluoro-5-[(trans-3-methoxycyclobutyl)oxy]phenyl}-1,2,3,4-tetrahydro-isoquinolin-6-yl)cyclopropane-carboxylic acid] | 6.73
O=C(O)[C@H]1C[C@@H]1c1ccc2c(c1)CCN(Cc1cc(OC(F)(F)F)ccc1F)C2 [Example 90, (1S,2S)-2-{2-[2-fluoro-5-(trifluoro-methoxy)benzyl]-1,2,3,4-tetra hydroisoquinolin-6-yl}cyclo-propane carboxylic acid] | 6.60
O=C(O)[C@H]1C[C@@H]1c1ccc2c(c1)CCN(c1cc(OC3CCC3)cc(Cl)c1F)C2 [Example 91, (1S,2S)-2-{2-[3-chloro-5-(cyclobutyloxy)-2-fluorophenyl]-1,2,3,4-tetrahydroisoquinolin-6-yl} cyclopropane carboxylic acid] | 7.23
Cc1nn(-c2ccc(F)cc2)c(N2CCc3cc(C4CC4C(=O)O)ccc3C2)c1F (stereo not drawn) [Example 92, 2-{2-[4-fluoro-1-(4-fluorophenyl)-3-methyl-1H-pyrazol-5-yl]-1,2,3,4-tetrahydroisoquinolin-6-yl} cyclo-propanecarboxylic acid] | 6.32
O=C(O)[C@H]1C[C@@H]1c1ccc2c(c1)CCN(Cc1cc(C(F)(F)F)cc(Cl)c1F)C2 [Example 93, (1S,2S)-2-{2-[3-chloro-2-fluoro-5-(trifluoromethyl)benzyl]-1,2,3,4-tetrahydroisoquinolin-6-yl} cyclopropanecarboxylic acid] | 6.46
Cc1ccc(-n2nc(C)c(F)c2N2CCc3cc(C4CC4C(=O)O)ccc3C2)cc1 (stereo not drawn) [Example 94, 2-{2-[4-fluoro-3-methyl-1-(4-methylphenyl)-1H-pyrazol-5-yl]-1,2,3,4-tetrahydroisoquinolin-6-yl}cyclo-propanecarboxylic acid] | 6.33
Cc1nn(-c2ccc(F)cc2)c(N2CCc3cc(C4CC4C(=O)O)ccc3C2)c1F (stereo not drawn) [Example 95, 2-{2-[4-fluoro-1-(4-fluorophenyl)-3-methyl-1H-pyrazol-5-yl]-1,2,3,4-tetrahydroisoquinolin-6-yl} cyclo-propanecarboxylic acid] | 6.31
Cc1ccc(-n2nc(C)c(F)c2N2CCc3cc(C4CC4C(=O)O)ccc3C2)cc1 (stereo not drawn) [Example 96, 2-{2-[4-fluoro-3-methyl-1-(4-methylphenyl)-1H-pyrazol-5-yl]-1,2,3,4-tetrahydroisoquinolin-6-yl}cyclopropanecarboxylic acid] | 6.08
COc1cc(O[C@H]2C[C@H](OC)C2)cc(N2CCc3cc([C@H]4C[C@@H]4C(=O)O)ccc3C2)c1C#N [Example 97, (1S,2S)-2-(2-{2-cyano-3-methoxy-5-[(trans-3-methoxycyclobutyl)oxy]phenyl}-1,2,3,4-tetrahydroisoquinolin-6-yl) cyclopropanecarboxylic acid] | 5.80
C[C@H]1C[C@H](Oc2cc(F)c(F)c(N3CCc4cc([C@H]5C[C@@H]5C(=O)O)ccc4C3)c2)C1 [Example 98, (1S,2S)-2-(2-{2,3-difluoro-5-[(trans-3-methylcyclobutyl)oxy]phenyl}-1,2,3,4-tetrahydroiso-quinolin-6-yl)-cyclopropane-carboxylic acid] | 7.00
CO[C@H]1C[C@H](Oc2cc(F)c(F)c(N3CCc4cc([C@@H]5C[C@H]5C(=O)O)ccc4C3)c2)C1 [Example 99, (1R,2R)-2-(2-{2,3-difluoro-5-[(trans-3-methoxycyclobutyl)oxy]phenyl}-1,2,3,4-tetrahydro-isoquinolin-6-yl)-cyclopropanecarboxylic acid] | 6.90
CO[C@H]1C[C@H](Oc2cc(F)c(F)c(N3CCc4cc([C@H]5C[C@@H]5C(=O)O)ccc4C3)c2)C1 [Example 100, (1S,2S)-2-(2-{2,3-difluoro-5-[(trans-3-methoxycyclobutyl)oxy]phenyl}-1,2,3,4-tetrahydroiso-quinolin-6-yl)-cyclopropanecarboxylic acid] | 6.60
C[C@H]1C[C@H](Oc2cc(F)c(F)c(N3CCc4cc([C@@H]5C[C@H]5C(=O)O)ccc4C3)c2)C1 [Example 101, (1R,2R)-2-(2-{2,3-difluoro-5-[(trans-3-methylcyclobutyl)oxy]phenyl}-1,2,3,4-tetrahydroiso-quinolin-6-yl)-cyclopropane-carboxylic acid] | 6.56
O=C(O)C1CC1c1ccc2c(c1)CCN(c1cc(OC(F)(F)F)ccc1F)C2 (stereo not drawn) [Example 102, 2-{2-[2-fluoro-5-(trifluoromethoxy)phnyl]-1,2,3,4-tetrahydroisoquinolin-6-yl}cyclopropane-carboxylic acid] | 6.93
